Data published in publication PMC2974656, “Selective killing of human immunodeficiency virus infected cells by non-nucleoside reverse transcriptase inhibitor-induced activation of HIV protease” (Retrovirology, 2010).
Where two headings read alike, the source gives them in different places.

Legend:
[1] = test system: intracellular HIV PR activity; design: method as in PMID 17096588; settings: 5 μM NNRTI; cited from earlier work
[2] = test system: HXB2D-EGFP infected CD4 positive cells isolated from PBMC; experiment: Killing of HIV-1 infected CD4 positive primary T-cells, flow cytometry; format: cell-based, human
Method: To validate our results obtained for the persistently infected cell line in a more relevant cell system we performed additional infection experiments using human peripheral blood mononuclear cells (PBMC). […]. PBMC isolated from healthy blood donors were activated and infected with a replication competent HIV-1 derivative which carries a gfp gene in the nef locus. The co-receptor antagonist AMD-3100 was added at day 2 post infection to prevent further viral spread. This was done to distinguish the proposed killing of infected cells from the inhibitory effect of NNRTIs and PIs on virus replication. […]. […] Similar results were obtained upon infection of CD4-positive primary T-cells with an EGFP-expressing virus (Figure 4B).
Figure 4 NNRTI induced selective killing of HIV-1 infected primary human cells. (A) PBMC prepared from buffy coats of healthy blood donors were infected with HIV-1AGFP. At day 2 post infection, 100 ng/ml AMD-3100 was added to all samples to prevent further infection. […] After further incubation for 5 days, cells were harvested and analyzed for the proportion of infected GFP expressing cells by flow cytometry. […] P-values were calculated using a two-tailed unpaired t-test (GraphPad Prism). Values were normalized to the respective solvent control. (B) CD4 positive cells isolated from PBMC were infected with HXB2D-EGFP. […] After further incubation for 3 days, cells were harvested and analyzed for the proportion of infected cells by flow cytometry. […] Asterisks: non-infected controls.
Peripheral blood mononuclear cells (PBMC) were purified from buffy coats of HIV-negative blood donors, grown in supplemented RPMI 1640 and stimulated by the addition of 10 ng/ml IL-2 (Biomol) and 2 μg/ml PHA (Sigma). PBMC pooled from two donors each were used for infection. […] For infection of PBMC, the HIV-1 derivatives HIV-1-AGFP [49] carrying the gfp gene fused to the codon for amino acid 16 of Nef in pNL4-3, or HXB2D-EGFP [60], which carries an egfp gene in the place of the viral nef open reading frame, were used as indicated. […]

[3] = test system: Gag processing in MT-4-IIIB cells; experiment: Immunoblot of Gag processing in chronically infected MT-4 cells; format: cell-based, HIV-1
RT heterodimer (p66/p51) = biological target: T1, RT heterodimer (p66/p51) (Human immunodeficiency virus type 1 group M subtype B, UniProt P04585); experiment: cell-based; format: cell-based, HIV-1; settings: for Promotion of RT dimerization, in words: summary of Table 1
T1 construct: the bait protein (p66) was fused to the C-terminus of a chimeric receptor; expressed in transfected cells; host or cells: mammalian cells
Text: RT heterodimer formation was monitored using a mammalian two hybrid system described previously. In brief, the bait protein (p66) was fused to the C-terminus of a chimeric receptor consisting of the extracellular part of the erythropoietin receptor and the intracellular part of the leptin receptor incapable of STAT activation. The prey protein (p51) was coupled to a part of the cytoplasmic tail of the gp130 chain carrying several STAT3 recruitment domains. Interaction of bait and prey protein leads to functional complementation of STAT3 activity, which results in Epo dependent induction of a STAT3-responsive luciferase reporter gene. Enhancement of this interaction by the addition of compounds can thus be measured by an increase of luciferase expression.

HIV-1IIIB = experiment: Direct antiviral activity: MT4-LTR-EGFP cells infected with HIV-1IIIB, EGFP fluorescence; format: cell-based; settings: read-out: Inhibition of HIV replication in vitro EC50
Method: After 3 days of incubation, infected cells were quantified by determination of total EGFP fluorescence per well based on microscopy and subsequent image analysis. Threshold values were determined from the average pixel value plus 6 standard deviations from the uninfected control wells, and the median threshold from all control wells on a plate was defined as baseline GFP expression. Intensity values for the sample wells were then determined by subtracting the background threshold from each pixel value obtained from the image of the respective well and calculating the sum of net pixel intensities. Percent inhibition was calculated as 100 * (1 - (Sample - CC)/(VC - CC)).

293T cells = experiment: Microscopically detectable impairment of cell growth of transfected 293T cells; format: cell-based; settings: high NNRTI concentrations (5 μM and above)
Method: At 44 h post transfection, cell lysates were analyzed for β-Gal activity.

[4] = test system: intracellular Gag processing by HIV PR; format: cell-based, HIV-1; settings: for Enhancement of alpha complementation: 0.03 to 10 μM NNRTI, result in words
Method: In previous studies, high concentrations of NNRTI (5 μM) were required to observe NNRTI mediated activation of intracellular HIV PR activity. […]. Towards this end, we developed a biochemical assay for gel independent quantitation of intracellular Gag processing by HIV PR in the context of a virus producing cell. We had previously shown that additional protein domains, consisting of small epitope tags or even the 27 kDa green fluorescent protein (EGFP), can be inserted between the MA and CA domains of the Gag and Gag-Pol polyproteins without affecting polyprotein production or processing by HIV PR [36]. Based on this, we designed a HIV reporter construct which contained a small N-terminal fragment ('alpha peptide') of Escherichia coli beta-galactosidase (β-Gal), flanked by two HIV PR recognition sites, between the MA and CA coding sequences of Gag (Figure 1A). […] This so called alpha complementation principle can be exploited for use in mammalian cells and has been employed for the establishment of various cell based biochemical assay systems. We reasoned that embedding of the small alpha peptide within the multi-domain polyproteins Gag or Gag-Pol, respectively, should impair its productive association with the omega subunit, while proteolytic release of the alpha peptide from the polyprotein by PR would allow the formation of enzymatically active β-Gal. This should allow us to monitor intracellular Gag and Gag-Pol processing through increased β-Gal activity.
Reconstituted β-Gal activity in cell lysates was measured by cleavage of the chromogenic substrate CPRG [42] as described in Methods.
The activity of β-Gal in cell lysates from transfected 293T cells was measured by enzymatic cleavage of the chromogenic β-Gal substrate chlorphenolred-β-D-galactopyranoside (CPRG, Roche; [42]). At 44 h post transfection, cells were briefly rinsed with PBS and suspended in reporter gene assay lysis buffer (Roche, 600 μl per 6-well dish) supplemented with a protease inhibitor mix (Roche). Cell suspensions were incubated for 10 min at room temperature and cell debris was subsequently removed by brief centrifugation. Five μl of supernatant were diluted in 96-well plates with 95 μl CPRG reaction buffer (50 mM potassium phosphate, pH 7.5, 1 mM MgCl2) and pre-warmed for 5 min to 37°C. 100 μl of pre-warmed reaction mix (100 μM CPRG in CPRG reaction buffer supplemented with protease inhibitor cocktail and 40 μM β-mercaptoethanol) were added and β-Gal mediated cleavage of CPRG was monitored by recording absorption at 592 nm every 2 min for 20 min at 37°C using a TECAN Safire multi-well reader. OD592 values were plotted over time and relative reaction rates (OD592/min) were determined from the initial linear velocities.

[5] = Cytotoxicity on uninfected control cells, EGFP fluorescence per well; format: cell-based; settings: human
Method: (§1) The cytotoxicity of inhibitors was determined in parallel on MT4-CMV-EGFP control cells and on MT4-LTR-EGFP-IIIB virus producing cells, respectively.

HIV-1AGFP infected PBMC = experiment: Killing of HIV-1 infected PBMC, proportion of GFP expressing cells by flow cytometry; format: cell-based, human; settings: 1 μM NNRTI, added day 2 post infection with AMD-3100, 5 days
Method: PBMC isolated from healthy blood donors were activated and infected with a replication competent HIV-1 derivative which carries a gfp gene in the nef locus [49]. The co-receptor antagonist AMD-3100 was added at day 2 post infection to prevent further viral spread.

[6] = test system: MT4-LTR-EGFP-IIIB HIV-1 producing cells; experiment: in vitro; format: cell-based; settings: for CC50: 4 days; for Cytotoxicity on MT4-LTR-EGFP-IIIB cells, in words: summary of Table 1
Method: as §1

[7] = test system: MT4-CMV-EGFP control cells; experiment: Cytotoxicity on uninfected control cells, EGFP fluorescence per well; format: cell-based
Method: as §1

in vitro = format: cell-based; settings: human, 4 days, no DRV; mean ± SD; tested up to 10 μM; read-out: Cytotoxicity on MT4-LTR-EGFP-IIIB HIV-1 producing cells CC50
Method: as §1

[8] = biological target: omega fragment of beta-galactosidase (inactive fragment lacking amino acids 11-41), encoded by pCMVω (Escherichia coli)
[9] = Human immunodeficiency virus 1, 72 h, MT4-LTR-EGFP cells, HIV-1IIIB MOI 0.01, 3 days, mean ± SD of three or more measurements
[10] = 293T cells, 44 h post transfection
[11] = MT4-CMV-EGFP control cells (uninfected), 4 days, mean ± SD, tested up to 10 μM, read-out: Cytotoxicity on MT4-CMV-EGFP control cells CC50
[12] = concentration enhancing luciferase signal by 50% over control, read-out: Enhancement of RT-Dimerization EC50
[13] = MT4-LTR-EGFP cells, HIV-1IIIB MOI 0.01, 3 days, mean ± SD of three or more measurements
[14] = no DRV, mean ± SD, tested up to 10 μM, read-out: Cytotoxicity on MT4-LTR-EGFP-IIIB HIV-1 producing cells CC50

## CC(C)Nc1cccnc1N1CCN(C(=O)c2cc3cc(NS(C)(=O)=O)ccc3[nH]2)CC1 [DLV, delavirdine]
[1]
  Stimulation of Gag or Gag-Pol processing: did not stimulate

## CC(C)CN(C[C@@H](O)[C@H](Cc1ccccc1)NC(=O)O[C@H]1CO[C@H]2OCC[C@H]21)S(=O)(=O)c1ccc(N)cc1 [DRV, darunavir]
[2]; 100 nM DRV + 1 μM NNRTI + 1 μM AZT
  Effect of DRV on the NNRTI effect in CD4-positive primary T-cells: completely reversed
[3]; 200 nM DRV
  Gag processing under DRV treatment: impaired

## Cc1cc(C#N)cc(C)c1Oc1nc(Nc2ccc(C#N)cc2)nc(N)c1Br [ETV, etravirine]
RT heterodimer (p66/p51)
  EC50: 270 nM
HIV-1IIIB; [9]
  EC50: 3.2 ± 5 nM
293T cells
  Impairment of cell growth with decrease in β-Gal activity indicative of cytotoxic effects: most pronounced
[4]; [10]
  Concentration required to achieve the maximal effect on β-Gal activity: ~ 1 μM
[5]; [11]
  CC50 at 4 days: > 10000 nM

## Cc1cc(S(N)(=O)=O)ccc1NC(=O)COc1ccc(Cl)cc1C(=O)c1cc(Cl)cc(C#N)c1 [GW-678248]
HIV-1AGFP infected PBMC
  Infected primary cells (PBMC) as compared with the control: significant reduction
RT heterodimer (p66/p51); [12]
  EC50: 3.2 nM
RT heterodimer (p66/p51)
  Promotion of RT dimerization, in words: low nM range
HIV-1IIIB; [13]
  EC50: 0.84 ± 0.25 nM
[2]; 1 μM NNRTI + 1 μM AZT, 3 days
  Cytotoxicity on infected CD4-positive primary T-cells: PR dependent cytotoxicity
[4]; [10]
  Concentration showing strong β-Gal activity enhancement: ~ 250 nM
[6]; [14]
  CC50: 630 ± 290 nM
[6]; read-out: CC50 on virus producing cells in the absence of DRV, one representative experiment (Fig. 3C), 4 parameter fit
  CC50: 350 nM
[6]
  Cytotoxicity on MT4-LTR-EGFP-IIIB cells, in words: submicromolar range
[3]; 1 μM, day 2 post addition
  NNRTI mediated enhancement of Gag processing in virus producing cells: decreased ratio of Gag to intermediate and fully mature processing products
[7]
  CC50: > 10000 nM

## COP(=O)(c1cc(C)cc(/C=C/C#N)c1)c1c(C(N)=O)[nH]c2ccc(Cl)cc12 (centres unmarked) [IDX-12899]
RT heterodimer (p66/p51); [12]
  EC50: 4.6 nM
RT heterodimer (p66/p51)
  Promotion of RT dimerization, in words: low nM range
HIV-1IIIB; [13]
  EC50: 1.9 ± 1.3 nM
[4]; [10]
  Concentration showing strong β-Gal activity enhancement: ~ 250 nM
[6]; [14]
  CC50: 290 ± 210 nM
[6]
  Cytotoxicity on MT4-LTR-EGFP-IIIB cells, in words: submicromolar range
[7]
  CC50: > 10000 nM

## Cc1ccnc2c1NC(=O)c1cccnc1N2C1CC1 [NVP, nevirapine]
HIV-1IIIB; [9]
  EC50: 42 ± 20 nM
[1]
  Stimulation of Gag or Gag-Pol processing: did not stimulate
[4]
  Enhancement of alpha complementation: little or no enhancement
[5]; [11]
  CC50 at 4 days: > 10000 nM

## Cc1cc(C)c(Nc2ccnc(Nc3ccc(C#N)cc3)n2)c(C)c1 [TMC-120]
HIV-1IIIB; [9]
  EC50: 1.7 ± 1.4 nM
[1]
  Stimulation of Gag or Gag-Pol processing: stimulation of Gag processing
293T cells
  Impairment of cell growth with decrease in β-Gal activity indicative of cytotoxic effects: most pronounced
[4]
  Enhancement of alpha complementation: little or no enhancement
[6]
  Cytotoxicity on MT4-LTR-EGFP-IIIB cells, in words: displayed toxicity
In vitro
  CC50 at 4 days: 2560 ± 740 nM
[7]; text summary of Table 1, tested range up to 10 μM
  Cytotoxicity on uninfected MT4-CMV-EGFP control cells, in words: comparable toxicity
[5]; [11]
  CC50 at 4 days: 3020 ± 900 nM

## CCc1nn(CCO)c(CC)c1Oc1cc(C#N)cc(C#N)c1 [UK-453061]
RT heterodimer (p66/p51)
  EC50: 150 nM
HIV-1IIIB; Human immunodeficiency virus 1, 72 h
  EC50: 7.5 ± 1.4 nM
[4]
  Enhancement of alpha complementation: little or no enhancement
[5]
  CC50 at 4 days: > 10000 nM

## alpha peptide of Escherichia coli beta-galactosidase (amino acids 1-51), released from Gagα by HIV-1 (from UniProt P00722 1-51)
[8]
  β-Gal activity (relative rate of CPRG cleavage) in lysates of 293T cells co-transfected with pCMVω and pCHIV.MAα, DMSO control: 0.109 min^-1

## modified Gagα precursor: HIV-1 Gag polyprotein with the β-Gal alpha peptide inserted between MA and CA (from pCHIV.MAα) (from UniProt P12493;P00722)
[8]
  β-Gal activity (relative rate of CPRG cleavage) in lysates of 293T cells co-transfected with pCMVω and pCHIV.MAα, grown with 2 μM LPV (Gagα processing nearly completely blocked): 0.054 min^-1
